# Tests used:
# [1] = tested on: NOD.Foxp3DTR mice; assay: Islet infiltration in Foxp3 depleted (DT treated) NOD.Foxp3DTR mice; assay type: in vivo, mouse; conditions: day 9, AHRL1 60 mg/kg oral days -1, 1, 3, 5, 7, TCDD day -1
# Description: FIGS. 6a-6e illustrate the therapeutic effects of treatment with an AhR ligand on a Foxp3 deficient subject using a NOD.Foxp3− mouse model. […]. NOD.Foxp3^DTR mice were obtained from the Juvenile Diabetes Research Foundation Center (JDRF) for Immune Tolerance in Diabetes at Harvard (CITDH). Mice were bred and maintained under specific pathogen-free conditions at Oregon State University facilities. All experimental procedures using animals were approved by the Institutional Animal Care and Use Committee at Oregon State University.
# FIG. 6a illustrates details of the mouse model used to analyze the therapeutic effects and mechanisms by which AhR activation alters T cell differentiation. […] Arrows 152 illustrate the NOD.Foxp3^DTR mice were orally dosed with 60 mg/kg AHRL1 on days −1, 1, 3, 5, and 7 relative to DT treatment on day 0. The carrier for AHRL1 was a 30% DMSO, 20% CREMAPHOR, 50% PECEOL solution. Data was also collected from NOD.Foxp3^DTR mice treated with TCDD on day −1 relative to DT treatment on day 0. […]
# The pancreases from the sacrificed mice were excised, sectioned, and stained with hematoxylin and eosin for analysis of islet infiltration by inflammatory CTL cells. Islet infiltration was scored on sequential hematoxylin and eosin stained pancreas sections separated by 200 μm. Islets were scored as no infiltration, less than 50% infiltration, or greater than 50% infiltration. […]
# [2] = tested on: NOD.Foxp3DTR mice; assay: Flow cytometry of PLN cells of NOD.Foxp3DTR mice; assay type: in vivo, mouse
# Method: FIG. 6a illustrates details of the mouse model used to analyze the therapeutic effects and mechanisms by which AhR activation alters T cell differentiation. […] Arrows 152 illustrate the NOD.Foxp3^DTR mice were orally dosed with 60 mg/kg AHRL1 on days −1, 1, 3, 5, and 7 relative to DT treatment on day 0. The carrier for AHRL1 was a 30% DMSO, 20% CREMAPHOR, 50% PECEOL solution. Data was also collected from NOD.Foxp3^DTR mice treated with TCDD on day −1 relative to DT treatment on day 0. […] Non-obese diabetic Foxp3 wild type (NOD.Foxp3^WT) mice treated with DT and NOD.Foxp3^DTR mice treated with vehicle were used as controls. The vehicle was the carrier for AHRL1. Arrow 158 illustrates sacrifice of the mice on day 9.
# The leukocyte composition of the pancreas and draining lymph nodes was analyzed using flow cytometry. Draining lymph nodes and pancreata were excised from the sacrificed mice, and single cell suspensions were prepared for analysis with flow cytometry. […] Data were acquired using an FC-500 flow cytometer (BECKMAN COULTER) and compensated and analyzed using FLOWJO software. […]
# [3] = in humans; cited from earlier work
# [4] = tested on: donor CD4+ T cells; assay: Acute graft versus host model: Treg phenotype of alloactivated donor CD4+ T cells; assay type: in vivo, mouse; conditions: B6D2F1 hosts, day 2
# Method: FIGS. 14a-14i show AHRL1 induces an AhR-dependent Treg phenotype by a mechanism that is mediated by the AhR in donor CD4+ T cells. The AhR-induced Tregs were identified as the CD4+CD25+CTLA-4+CD62L^low population of T cells. To determine if AHRL1 induced changes in donor CD4+ T cells, AHRL1 was compared with TCDD and the vehicle. On day 0, B6D2F1 host mice in groups of 5 were injected with CFSE-labeled C57BL/6 (H-2^b/b) T cells and given 15 mg/kg of AHRL1, 15 μg/kg of TCDD, or vehicle by i.p. injection. At 24 hours, an additional dose of 7 mg/kg of AHRL1 or vehicle was given. Mice that were treated with TCDD at the time of donor cell transfer were used as positive controls. Splenocytes were isolated on day 2 for phenotypic analysis of the alloresponsive (CFSE-diluted) donor CD4+ T cells. Splenocytes were harvested from the host mice and the CD4+ T cells were identified by flow cytometry.
# On day 0, B6D2F1 host mice in groups of 5 were injected with donor T cells obtained from AhR^+/+ or AhR-deficient (AhR^−/−) C57BL/6 mice. Host mice were treated with 2 mg/kg of AHRL1 or vehicle immediately following donor cell transfer and again at 24 hours. […] Thus, the AhR in the CD4+ T cell is the primary target driving the AhR-Treg phenotype.
# On day 0, B6D2F1 host mice in groups of 3-5 were injected with C57BL/6 T cells. Mice were immediately treated with 0 mg/kg, 0.4 mg/kg, 2 mg/kg, or 10 mg/kg of AHRL1 and again on day 1. On day 2, expression of markers associated with the AhR-Treg phenotype increased as the dose of AHRL1 increased. Further, dosing generally correlated with degree of activation of AhR as reflected by CYP1A1, CYP1B1, and AHRR expression in lymph nodes from the same mice. The asterisk (*) indicates a p-value of 0.05 relative to vehicle treatment.
# FIGS. 16c and 16d show expression of phenotypic markers, CD25+ICOS+CD62L^low and CD25+CTLA-4+, associated with AhR-Tregs in mice treated with AHRL1. Host mice were treated with 10 mg/kg of AHRL1, 11-Cl-BBQ analog, or vehicle on day 0 and day 1 following donor cell transfer. On day 2, the alloactivated CD4+ donor T cells were identified based on CFSE dilution. The percentage of donor cells in each group expressing the Treg markers were derived from flow histograms. The data represents mean±SEM of 5 mice per treatment. […] Analog 1 is statistically different from AHRL1 and analog 4 (p-value=0.05). […], analog 1, and analog 4 are shown to be AhR ligands that are capable of inducing Tregs in vivo. Accordingly, analogs 1 and 4 are expected to have a similar therapeutic effect in a subject as AHRL1 by suppressing an autoimmune response. Additionally, analog 6, analog 7, and other analogs of 11-Cl-BBQ, that are found to be active AhR ligands using the disclosed screening method, are expected to induce Tregs and suppress CTL to provide treatment and/or prevention of immune-mediated diseases.
smiles,measurement,setting,value
"Clc1cc2c(cc1Cl)Oc1cc(Cl)c(Cl)cc1O2 [TCDD, 2,3,7,8-tetrachlorodibenzo-p-dioxin]",islets showing no infiltration,[1],greater percentage of islets being free from infiltration
same,percentage of CD4+Foxp3- cells that were Nrp1+,[2]; DT treated NOD.Foxp3DTR mice,decreased
same,percentage of CD4+Foxp3- cells that were RORγt+,[2]; TCDD treated mice,0.42%
same,half-life,[3],approximately seven
same,"total number of alloactivated CD4+CD25+ T cells co-expressing CTLA-4+, ICOS, low CD62L",[4],increased
same,expression of ICOS on alloactivated donor CD4+ T cells,"[4]; AHRL1 15 mg/kg then 7 mg/kg, TCDD 15 μg/kg i.p.",significantly increased
